The values below come from PMC8037161 (International Journal of Molecular Sciences, 2021).

In one assay the test system is T4 coliphage DNA. Kind of assay: Ethidium displacement assay, apparent binding constant, T4 coliphage DNA. The note with it: apparent association constant, ± 0.2 × 10^5 M^−1. From the text: The values of binding constants in the range of 0.7–6.4 × 10^5 M^−1 for T4 coliphage DNA for derivatives 1–18 was evidence of their minor-groove selectivity, because the major groove of T4 coliphage DNA is blocked by a-glycosylation of the 5-(hydroxymethyl)cytidine residues. […] All of the compounds bound to AT-rich sequences weaker than netropsin but some of them bound stronger to GC-rich sequences, e.g., compounds 3, 6, and 10.
(§1) The fluorescence of DNA solutions (calf thymus DNA, T4 coliphage DNA, poly(dA-dT)2 and poly(dG-dC)2 with the investigated compound (final concentrations 10, 50, 100 μM) was measured by fluorescence spectrophotometer Infinite M200 TECAN at room temperature according to the procedure described above. The determination of DNA-binding constants was described in previous articles. The apparent binding constant was calculated from KEtBr [EtBr] = Kapp [drug], where [drug] = the concentration of the tested compound at 50% reduction of fluorescence and KEtBr and [EtBr] are known. The results are reported as a percentage of fluorescence decreases in Table 1.

In the next assay the test system is pBR322 plasmid. Kind of assay: Ethidium bromide assay, DNA-binding effect on plasmid pBR322. As to conditions: % fluorescence relative to controls. From the text:
Fluorescence readings are reported as % fluorescence relative to the controls.

For assay [1], the system named is poly(dG-dC)2 (DNA, polymer) GC. Kind of assay: ethidium bromide displacement, fluorescence. As to conditions: apparent; room temperature; ethidium bromide displaced; compound 10, 50, 100 µM.
The test system of another assay is poly(dG-dC)2. Description: Ethidium displacement assay, apparent binding constant, poly(dG-dC)2. As to conditions: apparent association constant, ± 0.2 × 10^5 M^−1. As to the method: as §1
Another assay relates to calf thymus DNA. Description: Ethidium displacement assay, apparent binding constant, calf thymus DNA. The note with it: apparent association constant, ± 0.2 × 10^5 M^−1. As to the method:
as §1

For a further assay, the target named is T1, recombinant human DHFR (Homo sapiens, UniProt P00374).
T1 construct: purchased
T1 sequence (P00374 1-187): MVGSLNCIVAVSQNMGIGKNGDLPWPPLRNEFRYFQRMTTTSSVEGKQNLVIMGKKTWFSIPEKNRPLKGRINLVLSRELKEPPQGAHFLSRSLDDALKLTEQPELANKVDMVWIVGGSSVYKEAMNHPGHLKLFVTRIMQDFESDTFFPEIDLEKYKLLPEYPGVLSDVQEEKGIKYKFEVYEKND
Kind of assay: Dihydrofolate reductase (DHFR) inhibition assay. In kind it is biochemical. As to conditions: assay kit.

The test system of another assay is poly(dA-dT)2. Kind of assay: Ethidium displacement assay, apparent binding constant, poly(dA-dT)2. As to conditions: apparent association constant, ± 0.2 × 10^5 M^−1. As to the method:
as §1

For assay [2], the system named is poly(dA-dT)2 (DNA, polymer) AT. Description: ethidium bromide displacement, fluorescence. As to conditions: apparent; room temperature; ethidium bromide displaced; compound 10, 50, 100 µM.

Turning to `COc1cc(C(=O)Nc2ccc(N)c(I)c2)cc(OC)c1OC` [Compound 1], the “Kapp T4 DNA” value in the assay on T4 coliphage DNA was found to be 160000 M⁻¹. Also, the “Decrease of Fluorescence” value in the assay with pBR322 plasmid was 74.54%. Moreover, the Kapp in assay [1] is reported as 3.6 ± 0.2 × 10^5 M^−1; in assay [2], 3.1 ± 0.2 × 10^5 M^−1. In the assay on poly(dG-dC)2, the “Kapp poly (dG-dC)2” value came to 360000 M⁻¹. For the same compound, in the assay with calf thymus DNA, the “Kapp Calf Thymus DNA” value came to 300000 M⁻¹. The IC50 on recombinant human DHFR is 21.89 ± 0.03 µM. Besides, the “Kapp Poly (dA-dT)2” value with poly(dA-dT)2 was 310000 M⁻¹.
Take `COc1cc(C(=O)Nc2ccc(F)c(N)c2)cc(OC)c1OC` [Compound 2]: the “Kapp T4 DNA” value in the assay on T4 coliphage DNA is 260000 M⁻¹. Moreover, the “Decrease of Fluorescence” value in the assay on pBR322 plasmid was 52.89%. In addition, the Kapp in assay [1] is 3.0 ± 0.2 × 10^5 M^−1; in assay [2] it was 1.9 ± 0.2 × 10^5 M^−1. Further, the “Kapp poly (dG-dC)2” value with poly(dG-dC)2 stood at 300000 M⁻¹. In addition, the “Kapp Calf Thymus DNA” value with calf thymus DNA was found to be 260000 M⁻¹. On recombinant human DHFR, the IC50 was 1.11 ± 0.02 µM. Further, the “Kapp Poly (dA-dT)2” value in the assay with poly(dA-dT)2 came out at 190000 M⁻¹.
On to `COc1cc(C(=O)Nc2cc(N)ccc2F)cc(OC)c1OC` [Compound 3], for which, in the assay on T4 coliphage DNA, the “Kapp T4 DNA” value was determined as 410000 M⁻¹. Also, in the assay with pBR322 plasmid, the “Decrease of Fluorescence” value is reported as 68.85%. Also, the Kapp is recorded as 5.3 ± 0.2 × 10^5 M^−1 in assay [1] and 4.3 ± 0.2 × 10^5 M^−1 in assay [2]. The “Kapp poly (dG-dC)2” value with poly(dG-dC)2 came out at 530000 M⁻¹. Further, the “Kapp Calf Thymus DNA” value in the assay with calf thymus DNA was 170000 M⁻¹. In addition, the IC50 at recombinant human DHFR is 10.13 ± 0.09 µM. Moreover, in the assay on poly(dA-dT)2, the “Kapp Poly (dA-dT)2” value was 430000 M⁻¹.
Turning to `COc1cc(C(=O)Nc2ccc(N)c(Cl)c2)cc(OC)c1OC` [Compound 4], the “Kapp T4 DNA” value in the assay with T4 coliphage DNA came out at 230000 M⁻¹. Moreover, in the assay on pBR322 plasmid, the “Decrease of Fluorescence” value came out at 87.99%. Besides, the Kapp was 1.3 ± 0.2 × 10^5 M^−1 in assay [1] and 2.1 ± 0.2 × 10^5 M^−1 in assay [2]. In the assay with poly(dG-dC)2, the “Kapp poly (dG-dC)2” value came out at 130000 M⁻¹. Also, the “Kapp Calf Thymus DNA” value with calf thymus DNA was 230000 M⁻¹. The IC50 at recombinant human DHFR came out at 5.02 ± 0.03 µM. Further, the “Kapp Poly (dA-dT)2” value with poly(dA-dT)2 is 210000 M⁻¹.
Regarding `COc1cc(C(=O)Nc2cc(N)ccc2Cl)cc(OC)c1OC` [Compound 5], the “Kapp T4 DNA” value in the assay with T4 coliphage DNA stood at 100000 M⁻¹. Also, the “Decrease of Fluorescence” value in the assay with pBR322 plasmid was found to be 72.56%. The Kapp in assay [1] is 2.3 ± 0.2 × 10^5 M^−1; in assay [2] it was 1.3 ± 0.2 × 10^5 M^−1. The “Kapp poly (dG-dC)2” value in the assay on poly(dG-dC)2 was determined as 230000 M⁻¹. Besides, the “Kapp Calf Thymus DNA” value with calf thymus DNA is 270000 M⁻¹. In addition, on recombinant human DHFR, the IC50 was 30.02 ± 0.02 µM. The “Kapp Poly (dA-dT)2” value in the assay on poly(dA-dT)2 was determined as 130000 M⁻¹.
On to `COc1cc(C(=O)Nc2ccc(N)nc2)cc(OC)c1OC` [Compound 6], for which the “Kapp T4 DNA” value in the assay on T4 coliphage DNA was 130000 M⁻¹. Further, the “Decrease of Fluorescence” value in the assay on pBR322 plasmid worked out at 50.44%. The Kapp in assay [1] was 4.8 ± 0.2 × 10^5 M^−1; in assay [2], 2.5 ± 0.2 × 10^5 M^−1. Besides, in the assay with poly(dG-dC)2, the “Kapp poly (dG-dC)2” value came to 480000 M⁻¹. For the same compound, in the assay with calf thymus DNA, the “Kapp Calf Thymus DNA” value was 400000 M⁻¹. Also, the IC50 on recombinant human DHFR came out at 0.99 ± 0.01 µM. The “Kapp Poly (dA-dT)2” value with poly(dA-dT)2 was found to be 250000 M⁻¹.
For the compound `COc1cc(OC)cc(C(=O)Nc2ccc(N)nc2)c1` [Compound 7], the “Kapp T4 DNA” value in the assay with T4 coliphage DNA worked out at 210000 M⁻¹. In addition, the “Decrease of Fluorescence” value in the assay on pBR322 plasmid is on record as 66.89%. The Kapp is recorded as 2.3 ± 0.2 × 10^5 M^−1 in assay [1] and 3.4 ± 0.2 × 10^5 M^−1 in assay [2]. For the same compound, the “Kapp poly (dG-dC)2” value with poly(dG-dC)2 worked out at 230000 M⁻¹. In addition, the “Kapp Calf Thymus DNA” value in the assay on calf thymus DNA was found to be 410000 M⁻¹. On recombinant human DHFR, the IC50 came to 3.02 ± 0.09 µM. For the same compound, in the assay with poly(dA-dT)2, the “Kapp Poly (dA-dT)2” value amounted to 340000 M⁻¹.
With `CN(Cc1cnc2nc(N)nc(N)c2n1)c1ccc(C(=O)N[C@@H](CCC(=O)O)C(=O)O)cc1` [MTX, methotrexate, reference compound], the “Decrease of Fluorescence” value with pBR322 plasmid turned out to be 100%.
Regarding `COc1cc(Cc2cnc(N)nc2N)cc(OC)c1OC` [TMP, 2,4-diamino-5-(3,4,5-trimethoxybenzyl) pyrimidine, reference compound], in the assay with pBR322 plasmid, the “Decrease of Fluorescence” value came to 100%.
